These are literature values, as cited in patent publication US20220160669A1, “PARENTERAL NUTRITION FORMULATION” (BAXTER INTERNATIONAL INC., priority 2020, published 2022).

The conditions of the series: human, in vivo; cited from earlier work.

SMILES strings stand for the structures.

On to `CCCC(=O)[O-].[Na+]` [sodium butyrate], for which the clearance rate was 83 ± 12 mL/min/kg.
